Laboratory results from ChEMBL document CHEMBL1909046, “DrugMatrix in vitro pharmacology data”.

How the values were obtained:
[1] = target: Vasopressin V1a receptor (Homo sapiens, UniProt P37288); type: cell membranes, Membrane; conditions: hek293; further: in other assays of this panel Not Active means under 50% inhibition at 10 µM
[2] = DRUGMATRIX: Glutamate, NMDA, Agonism radioligand binding (ligand: [3H] CGP-39653); type: cell membranes, Rattus norvegicus, Wistar, Cerebral cortex, Membrane; conditions: Not Active = under 50% inhibition at 10 µM
[3] = target: Insulin receptor (Rattus norvegicus, UniProt P15127); type: cell membranes, Wistar, Liver, Membrane; further: in other assays of this panel Not Active means under 50% inhibition at 10 µM
[4] = DRUGMATRIX: Phosphodiesterase PDE4 enzyme inhibition (substrate: [3H]cAMP + cAMP); conditions: u-937; Not Active = under 50% inhibition at 10 µM
[5] = target: Tyrosine-protein kinase Lck (Homo sapiens, UniProt P06239); assay: DRUGMATRIX: Protein Tyrosine Kinase, LCK enzyme inhibition (substrate: Poly(Glu:Tyr)); type: cell-based, Insect cells; conditions: insect cells; Not Active = under 50% inhibition at 10 µM
[6] = target: Adenosine receptor A2a (Homo sapiens, UniProt P29274); assay: DRUGMATRIX: Adenosine A2A radioligand binding (ligand: […]); type: cell membranes, Membrane; conditions: hek293; Not Active = under 50% inhibition at 10 µM
[7] = target: Cytochrome P450 2E1 (Homo sapiens, UniProt P05181); conditions: bti-tn-5b1-4; further: in other assays of this panel Not Active means under 50% inhibition at 10 µM
[8] = target: Voltage-gated inwardly rectifying potassium channel KCNH2 (Homo sapiens, UniProt Q12809); conditions: hek293; further: in other assays of this panel Not Active means under 50% inhibition at 10 µM
Chain of Voltage-gated inwardly rectifying potassium channel KCNH2 (Q12809 whole entry): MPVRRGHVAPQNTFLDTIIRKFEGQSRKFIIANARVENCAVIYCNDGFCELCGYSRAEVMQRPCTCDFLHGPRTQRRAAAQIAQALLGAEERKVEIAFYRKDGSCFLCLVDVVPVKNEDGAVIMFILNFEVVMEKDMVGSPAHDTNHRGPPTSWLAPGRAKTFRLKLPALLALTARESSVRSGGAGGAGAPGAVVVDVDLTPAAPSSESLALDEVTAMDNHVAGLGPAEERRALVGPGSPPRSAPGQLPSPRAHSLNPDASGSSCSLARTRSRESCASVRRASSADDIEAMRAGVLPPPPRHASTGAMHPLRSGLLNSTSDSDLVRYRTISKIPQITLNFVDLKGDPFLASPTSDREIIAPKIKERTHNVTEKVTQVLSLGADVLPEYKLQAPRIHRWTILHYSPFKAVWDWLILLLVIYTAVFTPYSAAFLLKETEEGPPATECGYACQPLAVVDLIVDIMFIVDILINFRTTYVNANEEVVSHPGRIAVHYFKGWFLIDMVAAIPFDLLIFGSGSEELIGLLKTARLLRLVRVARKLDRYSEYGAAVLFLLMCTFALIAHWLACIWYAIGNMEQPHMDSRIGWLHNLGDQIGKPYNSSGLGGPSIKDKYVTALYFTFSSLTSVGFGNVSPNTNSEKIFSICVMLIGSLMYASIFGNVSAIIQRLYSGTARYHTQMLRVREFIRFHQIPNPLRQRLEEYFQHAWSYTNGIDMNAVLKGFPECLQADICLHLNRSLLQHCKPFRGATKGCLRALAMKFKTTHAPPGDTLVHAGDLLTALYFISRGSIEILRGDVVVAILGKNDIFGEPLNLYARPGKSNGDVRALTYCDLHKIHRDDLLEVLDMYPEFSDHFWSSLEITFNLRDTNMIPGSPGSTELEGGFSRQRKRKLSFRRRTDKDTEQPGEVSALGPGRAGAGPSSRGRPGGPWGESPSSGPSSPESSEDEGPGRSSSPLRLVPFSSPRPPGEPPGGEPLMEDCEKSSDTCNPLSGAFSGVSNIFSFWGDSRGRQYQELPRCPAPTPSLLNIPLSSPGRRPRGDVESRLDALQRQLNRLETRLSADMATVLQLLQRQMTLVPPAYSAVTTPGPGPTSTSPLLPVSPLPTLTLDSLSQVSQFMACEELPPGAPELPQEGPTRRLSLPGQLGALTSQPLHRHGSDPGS

Chain of Vasopressin V1a receptor (P37288 whole entry): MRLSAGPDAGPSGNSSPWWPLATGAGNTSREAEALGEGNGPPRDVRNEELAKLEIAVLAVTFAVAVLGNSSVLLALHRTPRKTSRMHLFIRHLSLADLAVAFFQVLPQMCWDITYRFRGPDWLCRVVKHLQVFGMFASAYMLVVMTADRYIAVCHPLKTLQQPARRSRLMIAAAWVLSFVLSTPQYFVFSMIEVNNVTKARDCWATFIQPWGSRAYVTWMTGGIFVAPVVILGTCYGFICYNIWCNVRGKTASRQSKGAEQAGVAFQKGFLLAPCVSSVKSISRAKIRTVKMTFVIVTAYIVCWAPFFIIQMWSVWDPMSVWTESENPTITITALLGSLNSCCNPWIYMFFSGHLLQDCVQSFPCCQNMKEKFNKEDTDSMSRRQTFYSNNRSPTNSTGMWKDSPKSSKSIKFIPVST
Chain of Insulin receptor (P15127 27-759 limits assumed): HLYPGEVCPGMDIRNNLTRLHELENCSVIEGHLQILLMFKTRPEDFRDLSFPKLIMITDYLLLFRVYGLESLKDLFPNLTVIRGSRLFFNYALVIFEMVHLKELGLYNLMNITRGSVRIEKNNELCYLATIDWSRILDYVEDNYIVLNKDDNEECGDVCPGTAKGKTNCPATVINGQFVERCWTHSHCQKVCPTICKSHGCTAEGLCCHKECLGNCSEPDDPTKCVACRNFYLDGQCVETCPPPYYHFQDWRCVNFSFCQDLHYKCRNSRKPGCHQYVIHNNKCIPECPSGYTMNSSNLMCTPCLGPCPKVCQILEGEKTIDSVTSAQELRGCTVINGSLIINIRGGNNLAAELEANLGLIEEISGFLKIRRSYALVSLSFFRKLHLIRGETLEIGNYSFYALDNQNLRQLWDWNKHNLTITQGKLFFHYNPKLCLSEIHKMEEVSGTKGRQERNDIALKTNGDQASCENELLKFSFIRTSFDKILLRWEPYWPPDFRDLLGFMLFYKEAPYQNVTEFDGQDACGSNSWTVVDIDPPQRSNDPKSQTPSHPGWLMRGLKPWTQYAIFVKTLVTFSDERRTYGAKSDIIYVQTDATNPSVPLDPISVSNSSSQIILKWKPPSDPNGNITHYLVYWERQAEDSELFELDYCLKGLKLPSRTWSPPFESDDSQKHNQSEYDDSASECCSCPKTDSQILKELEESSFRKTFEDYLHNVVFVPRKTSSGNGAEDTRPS
Chain of Insulin receptor (P15127 764-1383 limits assumed): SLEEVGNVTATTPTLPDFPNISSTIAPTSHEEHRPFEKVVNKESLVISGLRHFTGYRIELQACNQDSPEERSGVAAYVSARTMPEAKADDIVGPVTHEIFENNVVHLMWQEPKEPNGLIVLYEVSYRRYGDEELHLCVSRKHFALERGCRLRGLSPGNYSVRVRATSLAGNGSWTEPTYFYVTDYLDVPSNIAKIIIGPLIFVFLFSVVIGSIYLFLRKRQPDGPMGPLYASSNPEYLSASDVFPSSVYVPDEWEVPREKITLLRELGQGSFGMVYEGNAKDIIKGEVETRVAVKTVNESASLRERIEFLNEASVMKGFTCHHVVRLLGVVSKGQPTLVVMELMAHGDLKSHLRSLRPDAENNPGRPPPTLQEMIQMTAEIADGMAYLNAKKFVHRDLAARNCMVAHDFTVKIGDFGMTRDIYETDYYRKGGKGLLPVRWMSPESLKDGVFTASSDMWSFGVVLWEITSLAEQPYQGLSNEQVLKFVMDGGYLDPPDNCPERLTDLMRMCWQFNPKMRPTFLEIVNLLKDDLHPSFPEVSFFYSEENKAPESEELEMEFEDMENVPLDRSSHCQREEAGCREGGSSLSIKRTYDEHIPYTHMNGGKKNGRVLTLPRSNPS
Chain of Tyrosine-protein kinase Lck (P06239 whole entry): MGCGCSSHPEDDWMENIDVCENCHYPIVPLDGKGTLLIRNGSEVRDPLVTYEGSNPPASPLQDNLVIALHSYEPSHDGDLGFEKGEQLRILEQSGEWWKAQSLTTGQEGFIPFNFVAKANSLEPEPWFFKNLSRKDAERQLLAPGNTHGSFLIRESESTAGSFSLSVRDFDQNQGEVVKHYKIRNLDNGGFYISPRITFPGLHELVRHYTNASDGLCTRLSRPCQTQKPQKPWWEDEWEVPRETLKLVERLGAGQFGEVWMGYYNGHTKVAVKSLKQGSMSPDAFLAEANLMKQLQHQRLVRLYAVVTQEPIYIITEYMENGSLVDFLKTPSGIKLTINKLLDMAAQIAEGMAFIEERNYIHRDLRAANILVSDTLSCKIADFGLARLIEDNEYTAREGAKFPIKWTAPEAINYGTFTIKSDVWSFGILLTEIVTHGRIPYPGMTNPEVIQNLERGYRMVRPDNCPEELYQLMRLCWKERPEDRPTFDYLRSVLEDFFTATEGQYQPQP
Chain of Adenosine receptor A2a (P29274 whole entry): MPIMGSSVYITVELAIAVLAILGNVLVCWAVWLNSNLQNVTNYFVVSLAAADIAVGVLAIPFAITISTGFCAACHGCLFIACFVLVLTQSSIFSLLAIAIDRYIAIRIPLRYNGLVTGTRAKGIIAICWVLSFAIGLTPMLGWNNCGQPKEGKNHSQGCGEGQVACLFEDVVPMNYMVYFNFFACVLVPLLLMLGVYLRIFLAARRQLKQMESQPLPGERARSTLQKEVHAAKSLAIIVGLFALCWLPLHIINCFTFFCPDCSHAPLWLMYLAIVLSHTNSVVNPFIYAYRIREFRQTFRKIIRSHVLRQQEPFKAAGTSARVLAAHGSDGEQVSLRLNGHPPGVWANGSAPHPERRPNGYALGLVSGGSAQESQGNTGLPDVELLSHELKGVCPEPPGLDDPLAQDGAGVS
Chain of Cytochrome P450 2E1 (P05181 whole entry): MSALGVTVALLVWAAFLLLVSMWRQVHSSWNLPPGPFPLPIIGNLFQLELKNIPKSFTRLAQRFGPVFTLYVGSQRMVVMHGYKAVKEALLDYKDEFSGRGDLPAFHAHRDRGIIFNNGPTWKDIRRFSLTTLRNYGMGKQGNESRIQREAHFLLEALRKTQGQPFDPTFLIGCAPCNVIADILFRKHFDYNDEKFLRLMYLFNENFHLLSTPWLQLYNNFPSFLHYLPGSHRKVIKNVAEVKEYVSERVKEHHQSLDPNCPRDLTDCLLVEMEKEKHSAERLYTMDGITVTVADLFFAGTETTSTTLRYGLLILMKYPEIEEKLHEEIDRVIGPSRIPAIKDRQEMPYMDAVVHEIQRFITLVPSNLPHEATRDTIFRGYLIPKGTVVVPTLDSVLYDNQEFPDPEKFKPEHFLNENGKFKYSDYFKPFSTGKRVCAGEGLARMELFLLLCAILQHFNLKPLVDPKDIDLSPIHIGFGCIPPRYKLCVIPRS

O=c1ncn2nc(Sc3ccc(F)cc3F)ccc2c1-c1c(Cl)cccc1Cl [NEFLAMAPIMOD]
Not Active: IC50 [1] | IC50 [2] | Ki [2] | IC50 [3] | IC50 [4] | Ki [4] | IC50 [5] | IC50 [6] | IC50 [7] | Ki [7] | IC50 [8] | Ki [8]

CO[C@H]1/C=C/O[C@@]2(C)Oc3c(C)c(O)c4c(O)c(c(/C=N/N5CCN(C)CC5)c(O)c4c3C2=O)NC(=O)/C(C)=C\C=C\[C@H](C)[C@H](O)[C@@H](C)[C@@H](O)[C@@H](C)[C@H](OC(C)=O)[C@@H]1C [RIFAMPIN]
Not Active: IC50 [1] | IC50 [2] | Ki [2] | IC50 [3] | IC50 [4] | Ki [4] | IC50 [5] | IC50 [6] | IC50 [7] | Ki [7] | IC50 [8] | Ki [8]

C=CCC1(C(C)CCC)C(=O)NC(=O)NC1=O (stereo unspecified) [SECOBARBITAL]
Not Active: IC50 [1] | IC50 [2] | Ki [2] | IC50 [3] | IC50 [4] | Ki [4] | IC50 [5] | IC50 [6] | IC50 [7] | Ki [7] | IC50 [8] | Ki [8]

Cc1noc(NS(=O)(=O)c2ccc(N)cc2)c1C [SULFISOXAZOLE]
Not Active: IC50 [1] | IC50 [2] | Ki [2] | IC50 [3] | IC50 [4] | Ki [4] | IC50 [5] | IC50 [6] | IC50 [7] | Ki [7] | IC50 [8] | Ki [8]

CSc1ccc(/C=C2/C(C)=C(CC(=O)O)c3cc(F)ccc32)cc1 [SULINDAC SULFIDE]
Not Active: IC50 [1] | IC50 [2] | Ki [2] | IC50 [3] | IC50 [4] | Ki [4] | IC50 [5] | IC50 [6] | IC50 [7] | Ki [7] | IC50 [8] | Ki [8]

Nc1c2c(nc3ccccc13)CCCC2 [TACRINE]
Not Active: IC50 [1] | IC50 [2] | Ki [2] | IC50 [3] | IC50 [4] | Ki [4] | IC50 [5] | IC50 [6] | IC50 [7] | Ki [7] | IC50 [8] | Ki [8]

CC(C)N1CCN(c2ccc(OCC3COC(Cn4cncn4)(c4ccc(Cl)cc4Cl)O3)cc2)CC1 (stereo unspecified) [TERCONAZOLE]
Not Active: IC50 [1] | IC50 [2] | Ki [2] | IC50 [3] | IC50 [4] | Ki [4] | IC50 [5] | IC50 [6] | IC50 [7] | Ki [7] | IC50 [8] | Ki [8]

Cc1cccc(N(C)C(=S)Oc2ccc3ccccc3c2)c1 [TOLNAFTATE]
Not Active: IC50 [1] | IC50 [2] | Ki [2] | IC50 [3] | IC50 [4] | Ki [4] | IC50 [5] | IC50 [6] | IC50 [7] | Ki [7] | IC50 [8] | Ki [8]

NC[C@H]1CC[C@H](C(=O)O)CC1 [TRANEXAMIC ACID]
Not Active: IC50 [1] | IC50 [2] | Ki [2] | IC50 [3] | IC50 [4] | Ki [4] | IC50 [5] | IC50 [6] | IC50 [7] | Ki [7] | IC50 [8] | Ki [8]

CC1(C)O[C@@H]2C[C@H]3[C@@H]4CCC5=CC(=O)C=C[C@]5(C)[C@@]4(F)[C@@H](O)C[C@]3(C)[C@]2(C(=O)CO)O1 [TRIAMCINOLONE ACETONIDE]
Not Active: IC50 [1] | IC50 [2] | Ki [2] | IC50 [3] | IC50 [4] | Ki [4] | IC50 [5] | IC50 [6] | IC50 [7] | Ki [7] | IC50 [8] | Ki [8]

NS(=O)(=O)c1cc2c(cc1Cl)NC(C(Cl)Cl)NS2(=O)=O (stereo unspecified) [TRICHLORMETHIAZIDE]
Not Active: IC50 [1] | IC50 [2] | Ki [2] | IC50 [3] | IC50 [4] | Ki [4] | IC50 [5] | IC50 [6] | IC50 [7] | Ki [7] | IC50 [8] | Ki [8]

Cc1c(C)c2c(c(C)c1O)CCC(C)(COc1ccc(CC3SC(=O)NC3=O)cc1)O2 (stereo unspecified) [TROGLITAZONE]
Not Active: IC50 [1] | IC50 [2] | Ki [2] | IC50 [3] | IC50 [4] | Ki [4] | IC50 [5] | IC50 [6] | IC50 [7] | Ki [7] | IC50 [8] | Ki [8]

N#CC(C#N)=Cc1ccc(O)c(O)c1 [TYRPHOSTIN 23]
Not Active: IC50 [1] | IC50 [2] | Ki [2] | IC50 [3] | IC50 [4] | Ki [4] | IC50 [5] | IC50 [6] | IC50 [7] | Ki [7] | IC50 [8] | Ki [8]

CC[C@]1(O)C[C@H]2CN(CCc3c([nH]c4ccccc34)[C@@](C(=O)OC)(c3cc4c(cc3OC)N(C=O)[C@H]3[C@@](O)(C(=O)OC)[C@H](OC(C)=O)[C@]5(CC)C=CCN6CC[C@]43[C@@H]65)C2)C1 [VINCRISTINE]
Not Active: IC50 [1] | IC50 [2] | Ki [2] | IC50 [3] | IC50 [4] | Ki [4] | IC50 [5] | IC50 [6] | IC50 [7] | Ki [7] | IC50 [8] | Ki [8]

CCCOc1ccccc1-c1nc2nn[nH]c2c(=O)[nH]1 [ZAPRINAST]
Not Active: IC50 [1] | IC50 [2] | Ki [2] | IC50 [3] | IC50 [4] | Ki [4] | IC50 [5] | IC50 [6] | IC50 [7] | Ki [7] | IC50 [8] | Ki [8]

SODIUM NITROPRUSSIDE
Not Active: IC50 [1] | Ki [1] | IC50 [2] | Ki [2] | IC50 [3] | Ki [3] | IC50 [4] | Ki [4] | IC50 [5] | Ki [5] | IC50 [6] | Ki [6] | IC50 [7] | Ki [7] | IC50 [8] | Ki [8]
